Source: ChEMBL document CHEMBL4219129, “Design, synthesis and biological evaluation of spiropyrimidinetriones oxazolidinone derivatives as antibacterial agents” (2018)
In brackets after ≈: the same amount, converted by molar mass.

How the values were obtained:
Type in all cases: functional
[1] = system: Staphylococcus aureus; assay: Antibacterial activity against […] Staphylococcus aureus ATCC 13709 SMITH
[2] = system: Staphylococcus epidermidis; assay: Antibacterial activity against methicillin-resistant Staphylococcus epidermidis ATCC 35984
[3] = system: Escherichia coli; assay: Antibacterial activity against TolC-deficient Escherichia coli
[4] = system: Staphylococcus aureus; assay: Antibacterial activity against Staphylococcus aureus Mu50 ATCC 700699
[5] = system: Staphylococcus aureus; assay: Antibacterial activity against linezolid-resistant Staphylococcus aureus O-128
[6] = system: Staphylococcus aureus; assay: Antibacterial activity against Staphylococcus aureus FDA 209P
[7] = system: Staphylococcus aureus; assay: Antibacterial activity against Staphylococcus aureus ATCC 29213
[8] = system: Staphylococcus epidermidis; assay: Antibacterial activity against Staphylococcus epidermidis ATCC 12228
[9] = system: Staphylococcus aureus; assay: Antibacterial activity against methicillin-resistant Staphylococcus aureus DB-00026
[10] = system: Escherichia coli; assay: Antibacterial activity against Escherichia coli MG1655; conditions: K-12 substr. MG1655
[11] = system: Staphylococcus aureus; assay: Antibacterial activity against PVL positive Staphylococcus aureus
[12] = system: Staphylococcus epidermidis; assay: Antibacterial activity against linezolid-resistant Staphylococcus epidermidis 1089191
[13] = system: Staphylococcus aureus; assay: Antibacterial activity against methicillin-resistant Staphylococcus aureus 562
[14] = system: Staphylococcus aureus; assay: Antibacterial activity against methicillin-resistant Staphylococcus aureus USA300 BAA-1556
[15] = system: Staphylococcus epidermidis; assay: Antibacterial activity against linezolid-resistant Staphylococcus epidermidis 1117174
[16] = system: Staphylococcus aureus; assay: Antibacterial activity against methicillin-resistant Staphylococcus aureus 1201984
[17] = system: Enterococcus faecium; assay: Antibacterial activity against vancomycin-resistant Enterococcus faecium 31/132
[18] = system: Enterococcus faecium; assay: Antibacterial activity against Enterococcus faecium NLNZ 572
[19] = system: Enterococcus faecium; assay: Antibacterial activity against Enterococcus faecium ATCC 19434
[20] = system: Enterococcus faecium; assay: Antibacterial activity against vancomycin-resistant Enterococcus faecium 32/133
[21] = system: Enterococcus faecium; assay: Antibacterial activity against vancomycin-resistant Enterococcus faecium 6A
[22] = system: Enterococcus faecium; assay: Antibacterial activity against Enterococcus faecium 575
[23] = system: Enterococcus faecalis; assay: Antibacterial activity against Enterococcus faecalis ATCC 29212
[24] = system: Enterococcus faecium; assay: Antibacterial activity against vancomycin-resistant Enterococcus faecium 134
[25] = system: Enterococcus faecium; assay: Antibacterial activity against vancomycin-resistant Enterococcus faecium R1
[26] = system: Enterococcus faecium; assay: Antibacterial activity against Enterococcus faecium 45/146
[27] = system: Enterococcus faecium; assay: Antibacterial activity against vancomycin-resistant Enterococcus faecium 03080 DS
[28] = system: Enterococcus faecalis; assay: Antibacterial activity against Enterococcus faecalis ATCC 19434
[29] = system: Enterococcus faecium; assay: Antibacterial activity against Enterococcus faecium ATCC 35667
[30] = system: Enterococcus faecalis; assay: Antibacterial activity against Enterococcus faecalis ATCC 51299
[31] = system: Enterococcus faecalis; assay: Antibacterial activity against linezolid-resistant Enterococcus faecalis ATCC 29212
[32] = system: Enterococcus faecium; assay: Antibacterial activity against linezolid-resistant Enterococcus faecium 303

Row | Structure (SMILES) | MIC [1] [µg/mL] | MIC [2] [µg/mL] | MIC [3] [µg/mL] | MIC [4] [µg/mL] | MIC [5] [µg/mL] | MIC [6] [µg/mL] | MIC [7] [µg/mL] | MIC [8] [µg/mL] | MIC [9] [µg/mL] | MIC [10] [µg/mL] | MIC [11] [µg/mL] | MIC [12] [µg/mL] | MIC [13] [µg/mL] | MIC [14] [µg/mL] | MIC [15] [µg/mL] | MIC [16] [µg/mL] | further results
1 | COC(=O)C1(C(=O)OC)Cc2cc(-c3ccc(N4C[C@H](CNC(C)=O)OC4=O)cc3F)ccc2N2CCOCC21 (some centres not stated) | > 32 | 4 (≈ 7.2 µM) | 16 (≈ 28.8 µM) | 8 (≈ 14.4 µM) | 32 (≈ 57.6 µM) | 16 (≈ 28.8 µM) | 8 (≈ 14.4 µM) | 4 (≈ 7.2 µM) | 16 (≈ 28.8 µM) | > 32 | 4 (≈ 7.2 µM) | > 32 | 4 (≈ 7.2 µM) | 16 (≈ 28.8 µM) | 32 (≈ 57.6 µM) | 4 (≈ 7.2 µM) | –
2 | O=C1NC(=O)C2(Cc3cc(-c4ccc(N5C[C@H](CO)OC5=O)cc4F)ccc3N3CCOCC32)C(=O)N1 (some centres not stated) | 32 (≈ 62.7 µM) | 2 (≈ 3.92 µM) | 4 (≈ 7.84 µM) | 4 (≈ 7.84 µM) | 32 (≈ 62.7 µM) | 8 (≈ 15.7 µM) | 8 (≈ 15.7 µM) | 4 (≈ 7.84 µM) | 8 (≈ 15.7 µM) | > 32 | 8 (≈ 15.7 µM) | > 32 | 4 (≈ 7.84 µM) | 8 (≈ 15.7 µM) | 32 (≈ 62.7 µM) | 16 (≈ 31.3 µM) | –
3 | O=C1NC(=O)C2(Cc3cc(-c4ccc(N5C[C@H](CO)OC5=O)cc4F)ccc3N3CCCC32)C(=O)N1 (some centres not stated) | 32 (≈ 64.7 µM) | ≤ 1 | 4 (≈ 8.09 µM) | 2 (≈ 4.04 µM) | 32 (≈ 64.7 µM) | 4 (≈ 8.09 µM) | 4 (≈ 8.09 µM) | 2 (≈ 4.04 µM) | 8 (≈ 16.2 µM) | > 32 | 4 (≈ 8.09 µM) | > 32 | 2 (≈ 4.04 µM) | 8 (≈ 16.2 µM) | 32 (≈ 64.7 µM) | 4 (≈ 8.09 µM) | –
4 | CC(=O)NC[C@H]1CN(c2ccc3c(c2)CC2(C(=O)NNC2=O)C2COCCN32)C(=O)O1 (some centres not stated) | > 32 | > 32 | > 32 | > 32 | > 32 | > 32 | > 32 | > 32 | > 32 | > 32 | > 32 | > 32 | > 32 | > 32 | 32 (≈ 74.5 µM) | > 32 | –
5 | O=C1NC(=O)C2(Cc3cc(-c4ccc(N5C[C@H](CO)OC5=O)cc4F)ccc3N3CCCCC32)C(=O)N1 (some centres not stated) | 16 (≈ 31.5 µM) | ≤ 1 | 4 (≈ 7.87 µM) | 2 (≈ 3.93 µM) | 16 (≈ 31.5 µM) | 4 (≈ 7.87 µM) | 4 (≈ 7.87 µM) | 2 (≈ 3.93 µM) | 4 (≈ 7.87 µM) | > 32 | 2 (≈ 3.93 µM) | > 32 | 2 (≈ 3.93 µM) | 4 (≈ 7.87 µM) | 32 (≈ 62.9 µM) | 2 (≈ 3.93 µM) | MIC [17]: 2 µg/mL (≈ 3.93 µM); MIC [18]: 4 µg/mL (≈ 7.87 µM); MIC [19]: 2 µg/mL (≈ 3.93 µM); MIC [20]: 2 µg/mL (≈ 3.93 µM); MIC [21]: 1 µg/mL (≈ 1.97 µM); MIC [22]: 2 µg/mL (≈ 3.93 µM); MIC [23]: 2 µg/mL (≈ 3.93 µM); MIC [24]: 2 µg/mL (≈ 3.93 µM); MIC [25]: 0.25 µg/mL (≈ 0.492 µM); MIC [26]: 1 µg/mL (≈ 1.97 µM); MIC [27]: 1 µg/mL (≈ 1.97 µM); MIC [28]: 2 µg/mL (≈ 3.93 µM); MIC [29]: 1 µg/mL (≈ 1.97 µM); MIC [30]: 1 µg/mL (≈ 1.97 µM); MIC [31]: 2 µg/mL (≈ 3.93 µM); MIC [32]: 8 µg/mL (≈ 15.7 µM)
6 | O=C1NC(=O)C2(Cc3cc(-c4ccc(N5C[C@H](CNC(=O)C(F)(F)F)OC5=O)cc4F)ccc3N3CCCC32)C(=O)N1 (some centres not stated) | 32 (≈ 54.3 µM) | 4 (≈ 6.79 µM) | 16 (≈ 27.1 µM) | 8 (≈ 13.6 µM) | 32 (≈ 54.3 µM) | 16 (≈ 27.1 µM) | 32 (≈ 54.3 µM) | 8 (≈ 13.6 µM) | 16 (≈ 27.1 µM) | > 32 | 8 (≈ 13.6 µM) | 32 (≈ 54.3 µM) | 8 (≈ 13.6 µM) | 16 (≈ 27.1 µM) | 32 (≈ 54.3 µM) | 8 (≈ 13.6 µM) | –
